Tests used:
tau polypeptides = assay: Light scattering measurements (absorbance at 350 nm) of tau aggregation; type: biochemical, human
Method: FIG. 11. Dose response of cinnamon (oxidized) on tau aggregation. […] In this experiment, cinnamon was incubated overnight in 10 mM NH4OH.
FIG. 12. Effect of cinnamon A trimer on light scattering of tau.
In one illustrative embodiment of the invention, the effects of cinnamon extract or purified cinnamon proanthocyanidins on tau aggregation can be followed readily in a spectrophotometer by measuring the change in absorbance at 350 nm. The association of tau promoted by heparin causes an increase in absorbance. […] Different buffers and temperatures may be used if desired to study factor influencing aggregation.

FL-tau = target: T1, FL-tau (Homo sapiens, UniProt P10636); assay: Turbidity assay of heparin-induced aggregation, FL-tau; type: biochemical; details: FL-tau 50 uM, heparin 0.1 mg/ml, pH 7.0; trimer 200 uM (FIG. 3a)
T1 construct: full-length tau and an engineered truncation fragment of tau (tau187) were generated by over-expression of the recombinant human protein in bacteria; made in house; host or cells: bacteria
T1 sequence (P10636 1-441 isoform P10636-8): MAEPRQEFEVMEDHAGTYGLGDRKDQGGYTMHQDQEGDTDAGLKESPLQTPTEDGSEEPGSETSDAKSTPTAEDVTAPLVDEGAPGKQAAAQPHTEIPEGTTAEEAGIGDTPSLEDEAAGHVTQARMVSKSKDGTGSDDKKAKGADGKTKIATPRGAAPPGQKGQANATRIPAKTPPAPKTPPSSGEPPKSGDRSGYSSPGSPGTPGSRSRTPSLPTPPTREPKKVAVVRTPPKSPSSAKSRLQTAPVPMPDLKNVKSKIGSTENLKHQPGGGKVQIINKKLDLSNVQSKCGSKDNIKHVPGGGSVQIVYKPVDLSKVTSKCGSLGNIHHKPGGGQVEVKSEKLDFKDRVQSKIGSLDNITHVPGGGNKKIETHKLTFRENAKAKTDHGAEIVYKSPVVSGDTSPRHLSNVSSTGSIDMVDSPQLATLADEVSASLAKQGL
Method: FIG. 3. Proanthocyanidins inhibit tau aggregation. A) Turbidity assay. Aggregation of FL-tau (50 uM) was initiated with heparin (0.1 mg/ml) in 20 mM NaPO4, pH 7.0. Curve 1: no proanthocyanidin; Curve 2: 200 uM purified A-type trimer. B) After 45 min, reactions were centrifuged at 100,000 g×60 min. The amount of tau in the pellets (P) vs. supernatants (S) were examined by SDS-PAGE. Markers (top to bottom) are 97, 66, 45 kDa. C, D) EM after aggregation for 45 min. Scale bars=500 nm; C) no proanthocyanidin, D) 200 uM purified A-type trimer.
As shown by the data disclosed in the various figures, proanthocyanidins bind to tau and inhibit tau aggregation. […] In these experiments, heparin-induced aggregation of tau into PHF-like fibers is routinely monitored by four methods: 1) enhanced Thioflavin S fluorescence emission; 2) increased turbidity measured by OD350; 3) ultracentrifugation of sarkosyl-treated samples, and 4) electron microscopy. […] To ensure that proanthocyanidin molecules were not simply binding to and precipitating tau in a non-specific manner, the amount of tau that fractionated with the pellet vs. supernatant after high-speed ultracentrifugation was analyzed.

tau187 = target: T2, tau187 (Homo sapiens, UniProt P10636); assay: Turbidity (OD350) assay of heparin-induced aggregation, tau187; type: biochemical; details: trimer 12.5 uM as pure trimer or as whole extract (0.22 mg/mL CE); OD 350 (FIG. 17)
T2 construct: his; made in house; host or cells: bacteria
T2 sequence (P10636 572-758 limits assumed): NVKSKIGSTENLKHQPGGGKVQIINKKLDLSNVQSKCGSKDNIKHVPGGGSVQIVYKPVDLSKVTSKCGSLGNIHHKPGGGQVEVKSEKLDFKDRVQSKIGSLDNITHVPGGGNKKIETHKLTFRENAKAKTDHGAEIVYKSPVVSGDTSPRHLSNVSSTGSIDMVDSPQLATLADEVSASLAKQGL
Method: FIG. 15A. […] 50 μM Tau^187 was incubated with 0.11 mg/ml heparin (18 kDa) at 23° C. Aggregation was monitored by turbidity (OD350). Cinnamaldehyde was present at a final concentration of 0, 50 and 100 μM. FIG. 15B. Electron microscopy of tau fibers in the presence of cinnamaldehyde (CA). Tau fibers were visualized by electron microscopy after 5 hrs of aggregation in the presence of: 0 CA (left panel); B) 100 uM CA (right panel). […] FIG. 15 C. Trans-cinnamaldehyde chemical structure. FIG. 16A. […] 50 uM tau187 was incubated with 0.11 mg/mL heparin (18 kDa) at 23° C. Epicatechin was untreated, treated with 10 mM NH4OH for 10 min at 95° C. then neutralized, or treated with 100 U of mushroom tyrosinase (Sigma) for 10 min. Epicatechin was added to the reaction at a final concentration of 25 uM. Fiber formation was monitored by OD 350. FIG. 16B. epicatechin and catechin chemical structures. FIG. 17A. HPLC analysis of proanthocyanidin A-type trimer, A) purified or B) in whole cinnamon extract. The trimer corresponds to the major peak at ˜40 min. Areas underneath the peaks in panels A and B each correspond to 6150 pmoles. […] Fiber formation was monitored by OD 350. Concentrations of A-trimer in pure form and in whole cinnamon extract (CE) were normalized by absorbance measurements of the A-trimer resolved by HPLC. […]

tau filaments = assay: Transmission electron microscopy of tau filaments; type: biochemical; details: aggregating conditions
Sequence of tau filaments (P10636 572-758 limits assumed): as above
Excerpt: In one illustrative embodiment of the invention, transmission electron microscopy, is a highly desirable technique for studies of aggregation with heparin and water or with heparin and purified proanthocyanidin or cinnamon extracts from Cinnamomum zeylanicum, Cinnamomum cassia, or Cinnamomum loueirii. It provides definition of what the aggregates actually are, e.g., filaments and their abundance, sizes, and shapes.

tau fragment (tau 187) = target: T3, tau fragment (tau 187) (Homo sapiens, UniProt P10636); assay: Thioflavin T fluorescence assay of tau aggregation; type: biochemical
T3 construct: his; made in house; host or cells: bacteria
T3 sequence (P10636 572-758 limits assumed): as above
Method: In one illustrative embodiment of the invention, the effects of cinnamon proanthocyanidin or its extract can be determined by fluorescence measurements in the presence of a thioflavin derivative. If aggregation proceeds through formation of an ordered structure, enhancement of thioflavin occurs. This method can be used to quantify the effects of the proanthocyanidins on the rate and extent of tau aggregation.
An alternative method is to incubate tau in the absence of thioflavin under conditions that cause aggregation in the absence and presence of cinnamon proanthocyanidin. At different times aliquots are removed to measure the aggregation by examining the fluorescence of thioflavin T added to these aliquots. As thioflavin can affect aggregation itself and could compete partly with binding of proanthocyanidin this modified assay could maximize the effect of proanthocyanidin. Because it would necessitate removing aliquots from the reaction at different times and mixing in new reagents, it is less convenient and prone to additional errors.
This conclusion was reached by measuring changes in fluorescence of thioflavin T under conditions well documented to cause formation of tau aggregates.

[1] = tested on: Full-length tau or tau 187; assay: Gel electrophoresis of sarkosyl pellets vs supernatants; type: biochemical, human
Sequence of Full-length tau or tau 187 (P10636 572-758 limits assumed): as above
Method: In one illustrative embodiment of the invention, gel electrophoresis also can be used to study effects on aggregation. The advantage here is that simple equipment is needed for these measurements but the system provides less definition of the effects of the inhibitors than electron microscopy. Full-length tau or tau 187 (50 uM) is induced to undergo aggregation with heparin (0.1 mg/ml) for 16 hours at room temperature in the presence of varying concentrations of cinnamon extract or cinnamon proanthocyanidin type A trimer. Samples are then treated with 1% sarkosyl for 1 hr, centrifuged (105,000 g×1 hr), and the pellets (P) versus supernatants (S) then analyzed by SDS-PAGE. The increase in the ratio of tau in the pellet compared to the supernatant is a measure of aggregation and cinnamon extract or purified proanthocyanidin is found to decrease this ratio.

Sequence of tau polypeptides (P10636 572-758 limits assumed): as above

A-linked proanthocyanidin trimer [A-type trimer]
Inhibition of tau aggregation by light scattering (tau polypeptides): inhibits the aggregation | Inhibition of FL-tau aggregation (turbidity) (FL-tau): dramatically inhibited | Inhibition of tau187 aggregation, whole extract vs pure trimer at equal trimer content (tau187): inhibits tau polypeptide aggregation | Formation of tau filaments by transmission electron microscopy (tau filaments): inhibited | Inhibition of tau 187 aggregation by thioflavin T fluorescence (tau fragment (tau 187)): reduces aggregation of tau | Tau aggregation by gel electrophoresis [1]: less aggregation of tau
